This note sets out measurements from patent US20260248927A1, “TARGETED PROTEIN DEGRADATION USING BIFUNCTIONAL COMPOUNDS THAT BIND UBIQUITIN LIGASE AND TARGET MCL-1 PROTEIN” (Captor Therapeutics S.A., priority 2022, published 2026).

In series [1] the test system is MV4-11 cells. The experiment in a line: Cell viability assay (CellTiter-Glo), MV4-11. The following applies: Homo sapiens, MV4-11, 24 hours, 1% FBS, read-out: Average pCC50 by molecule MV4-11 (converted). The series is classed as cell-based. The text has this:
(§1) The effect of various compounds of the invention on the viability of MV4-11 and ARH-77 cell lines was investigated, using the CTG protocol described below.
(§2) MV4-11 cell lines are derived from acute myeloid leukaemia and it is described in the literature as a MCL-1 dependent cell line, as opposed to lymphoblast-like ARH-77 cell line, which is described as independent of MCL-1 (Tron A E et al. Nat Commun. 2018; 9: 5341; Caenepeel S et al. Cancer Discov. 2018 December; 8(12): 1582-1597).
(§3) Cells (MV4-11 or ARH-77) were seeded on […] in a growth medium with 1% FBS. Next, compound stocks were pre-diluted in DMSO and added directly to the cell culture media (final DMSO concentration: 0.5%). Compound concentrations used in this assay: 1/3 dilutions starting at 30 μM (9 to 12 points). After 24 hours of incubation, cell viability was evaluated using CellTiter-Glo Luminescent Cell Viability Assay (Promega, cat #G7572). The luminescence signal was measured using a CLARIOstar Plus Multi-Mode Microplate Reader (574-590 nm).
(§4) Results were normalized to DMSO control. Collected data were analyzed using GraphPad Prism to calculate pCC50 values.
For orientation: ATP-based viability assays read luminescence as a measure of living cells.

The target of series [2] is [MCL-1]-[compound of formula (I)]—[CRBN/DDB1] (Homo sapiens, UniProt Q07820+Q96SW2). The experiment in a line: HTRF ternary complex formation assay. Type of series: binding. The following applies: hMcl-1 and CRBN, 180 min at 25° C.; read-out: HTRF ternary complex Average pEC50 by molecule (converted). The protocol:
The effect of the bifunctional compounds of the invention on the formation of a ternary complex composed of [MCL-1]-[compound of formula (I)]—[CRBN/DDB1] was investigated with HTRF ternary complex assay.
Mix of protein solution was prepared: • 48 nM hMcl-1 and 105.6 nM CRBN were prepared in PPI Europium detection buffer with 2 mM DTT. • Acceptor and donor stock solutions were diluted 100 times in PPI Europium detection buffer. Equal volumes of both reagents were mixed. Finally giving 3 nM of Streptavidin-Eu cryptate ([…]) and 6.67 nM of Anti-6×his-d2 ([…]).
5 μl of protein mix was dispensed to all wells. The tested compounds in dose-response were dispensed onto a white 384-well low volume plate (Greiner, 784075). DMSO was backfilled to all wells, resulting in a final DMSO content of 0.5%. Wells containing only DMSO served as a background. Next, 5 μl of solution with donor and acceptor was added to the wells.
The plate was sealed with transparent film and shaken using a VibroTurbulator for 60 sec at level 3. The plate was then spun down shortly (10 s, 1000 rcf) and incubated at 25° C. for 180 min.
The read-out was performed with plate reader (Pherastar, BMG Labtech) in time resolved fluorescence mode. Filterset: TR 337 665 620.
The results were analyzed as follows: • 1) an average of fluorescence for background signal was calculated and used as a negative control; • 2) raw fluorescence values for tested compounds were normalized against negative controls; • 3) bell shape curve was fitted to a gaussian distribution using a non-linear least squares Gauss-Newton algorithm; • 4) EC50 and pEC50 values were determined.
On the technique in general: TR-FRET usually uses a lanthanide donor and a delayed reading to cut background.

Series [3] is described as follows: Cell viability assay (CellTiter-Glo), ARH-77. The series is classed as cell-based. The note with it: human, ARH-77 cells (lymphoblast-like, MCL-1 independent), ARH-77, 24 hours, 1% FBS, read-out: Average pCC50 by molecule ARH-77 (converted).
From the text: as §1, §2, §3, §4

SMILES strings stand for the structures.

[MCL-1]-[compound of formula (I)]—[CRBN/DDB1], sequence (Q07820 whole entry): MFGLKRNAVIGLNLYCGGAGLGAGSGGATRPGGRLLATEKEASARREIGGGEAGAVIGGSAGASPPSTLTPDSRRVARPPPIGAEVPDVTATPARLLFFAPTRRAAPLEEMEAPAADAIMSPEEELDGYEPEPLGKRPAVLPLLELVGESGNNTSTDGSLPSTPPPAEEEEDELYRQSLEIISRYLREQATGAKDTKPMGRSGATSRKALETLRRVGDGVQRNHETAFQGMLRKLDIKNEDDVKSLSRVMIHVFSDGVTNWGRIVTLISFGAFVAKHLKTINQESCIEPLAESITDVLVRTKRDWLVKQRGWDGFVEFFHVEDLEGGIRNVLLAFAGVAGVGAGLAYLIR
[MCL-1]-[compound of formula (I)]—[CRBN/DDB1], sequence (Q96SW2 whole entry): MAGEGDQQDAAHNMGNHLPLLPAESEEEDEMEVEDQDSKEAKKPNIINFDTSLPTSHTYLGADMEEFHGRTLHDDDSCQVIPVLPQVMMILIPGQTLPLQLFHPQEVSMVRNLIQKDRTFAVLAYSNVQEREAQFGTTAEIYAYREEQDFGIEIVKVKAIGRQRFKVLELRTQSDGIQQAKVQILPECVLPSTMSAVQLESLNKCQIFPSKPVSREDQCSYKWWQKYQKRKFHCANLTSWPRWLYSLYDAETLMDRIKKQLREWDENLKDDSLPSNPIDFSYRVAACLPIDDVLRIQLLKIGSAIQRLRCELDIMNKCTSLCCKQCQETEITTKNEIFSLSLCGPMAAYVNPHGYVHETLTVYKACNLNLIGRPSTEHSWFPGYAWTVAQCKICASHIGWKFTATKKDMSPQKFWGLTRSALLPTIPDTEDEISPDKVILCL
[MCL-1]-[compound of formula (I)]—[CRBN/DDB1], sequence (Q16531 whole entry partner): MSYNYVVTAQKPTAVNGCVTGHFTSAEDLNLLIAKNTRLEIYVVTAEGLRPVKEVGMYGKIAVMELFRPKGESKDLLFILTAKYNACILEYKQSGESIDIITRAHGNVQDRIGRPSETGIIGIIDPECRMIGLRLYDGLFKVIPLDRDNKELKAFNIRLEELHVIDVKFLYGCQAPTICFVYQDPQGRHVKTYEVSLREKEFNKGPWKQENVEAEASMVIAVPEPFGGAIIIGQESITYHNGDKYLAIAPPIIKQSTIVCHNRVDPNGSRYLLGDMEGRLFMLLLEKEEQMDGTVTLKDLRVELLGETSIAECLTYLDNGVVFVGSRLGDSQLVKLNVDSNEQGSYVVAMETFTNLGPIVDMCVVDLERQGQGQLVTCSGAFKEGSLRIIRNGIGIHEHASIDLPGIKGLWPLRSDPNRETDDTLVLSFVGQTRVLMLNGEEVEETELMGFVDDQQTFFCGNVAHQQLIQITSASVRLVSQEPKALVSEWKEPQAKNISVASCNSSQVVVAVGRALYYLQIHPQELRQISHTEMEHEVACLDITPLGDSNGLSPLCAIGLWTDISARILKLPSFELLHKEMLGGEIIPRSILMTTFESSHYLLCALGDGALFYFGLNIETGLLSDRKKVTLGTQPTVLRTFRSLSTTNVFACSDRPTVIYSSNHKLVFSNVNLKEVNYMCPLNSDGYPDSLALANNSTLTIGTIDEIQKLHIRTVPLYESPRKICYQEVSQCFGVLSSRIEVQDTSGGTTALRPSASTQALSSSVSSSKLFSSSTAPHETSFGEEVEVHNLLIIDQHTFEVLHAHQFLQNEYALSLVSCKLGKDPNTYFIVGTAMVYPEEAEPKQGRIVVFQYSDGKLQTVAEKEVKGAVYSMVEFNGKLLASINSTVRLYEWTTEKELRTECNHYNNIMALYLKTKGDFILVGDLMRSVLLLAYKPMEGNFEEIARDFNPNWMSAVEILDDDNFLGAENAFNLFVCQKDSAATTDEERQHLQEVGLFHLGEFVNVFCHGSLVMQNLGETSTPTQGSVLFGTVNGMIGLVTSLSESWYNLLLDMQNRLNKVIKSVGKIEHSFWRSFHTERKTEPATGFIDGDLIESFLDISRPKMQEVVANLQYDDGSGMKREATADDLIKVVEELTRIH

Regarding `Cc1nn(C)c(C)c1-c1c(Cl)ccc2c(CCCOc3cccc4cc(F)ccc34)c(C(=O)O)n(CCN3CCC(CN4CCN(c5ccc6c(c5)C(C)N(C5CCC(=O)NC5=O)C6=O)CC4)CC3)c12` (mixture of isomers) [Compound 145, 6-Chloro-1-(2-(4-((4-(2-(2,6-dioxopiperidin-3-yl)-3-methyl-1-oxoisoindolin-5-yl)piperazin-1-yl)methyl)piperidin-1-yl)ethyl)-3-(3-((6-fluoronaphthalen-1-yl)oxy)propyl)-7-(1,3,5-trimethyl-1H-pyrazol-4-yl)-1H-indole-2-carboxylic acid], the CC50 in series [1] is under 100 nM. The EC50 in series [2] was under 31.6 nM. For the same compound, the CC50 at 24 h in series [3] is over 10000 nM.
In the same order, the values of `Cc1nn(C)c(C)c1-c1c(Cl)ccc2c(CCCOc3cccc4cc(F)ccc34)c(C(=O)O)n(CCN3CCN(C(=O)Cn4c(C)nc5c(C(=O)NC6CCC(=O)NC6=O)ccc(F)c54)CC3)c12` (stereo not shown) [Compound 1, 6-Chloro-1-(2-(4-(2-(4-((2,6-dioxopiperidin-3-yl)carbamoyl)-7-fluoro-2-methyl-1H-benzo[d]imidazol-1-yl)acetyl)piperazin-1-yl)ethyl)-3-(3-((6-fluoronaphthalen-1-yl)oxy)propyl)-7-(1,3,5-trimethyl-1H-pyrazol-4-yl)-1H-indole-2-carboxylic acid] are under 100 nM, under 100 nM and over 10000 nM.
In the same order, the values of `Cc1nc2c(C(=O)NC3CCC(=O)NC3=O)cc(OCC(=O)N3CCN(CCn4c(C(=O)O)c(CCCOc5cccc6cc(F)ccc56)c5ccc(Cl)c(-c6c(C)nn(C)c6C)c54)CC3)cc2[nH]1` (stereo not shown) [Compound 2, 6-Chloro-1-(2-(4-(2-((4-((2,6-dioxopiperidin-3-yl)carbamoyl)-2-methyl-1H-benzo[d]imidazol-6-yl)oxy)acetyl)piperazin-1-yl)ethyl)-3-(3-((6-fluoronaphthalen-1-yl)oxy)propyl)-7-(1,3,5-trimethyl-1H-pyrazol-4-yl)-1H-indole-2-carboxylic acid] are under 100 nM, under 100 nM and over 10000 nM.
Take `Cc1nc2c(C(=O)NC3CCC(=O)NC3=O)cc(OCCC(=O)N3CCN(CCn4c(C(=O)O)c(CCCOc5cccc6cc(F)ccc56)c5ccc(Cl)c(-c6c(C)nn(C)c6C)c54)CC3)cc2[nH]1` (stereo not shown) [Compound 3, 6-Chloro-1-(2-{4-[3-({4-[(2,6-dioxopiperidin-3-yl)carbamoyl]-2-methyl-1H-1,3-benzodiazol-6-yl}oxy)propanoyl]piperazin-1-yl}ethyl)-3-{3-[(6-fluoronaphthalen-1-yl)oxy]propyl}-7-(1,3,5-trimethyl-1H-pyrazol-4-yl)-1H-indole-2-carboxylic acid]: in series [1], the CC50 is under 100 nM. Further, the EC50 in series [2] was under 100 nM. Moreover, the CC50 at 24 h in series [3] is over 31600 nM.
As to `Cc1nc2ccc(C(=O)NCC(=O)N3CCN(CCn4c(C(=O)O)c(CCCOc5cccc6cc(F)ccc56)c5ccc(Cl)c(-c6c(C)nn(C)c6C)c54)CC3)cc2cc1C1CCC(=O)NC1=O` (stereo not shown) [Compound 5, 6-Chloro-1-{2-[4-(2-{[3-(2,6-dioxopiperidin-3-yl)-2-methylquinolin-6-yl]formamido}acetyl)piperazin-1-yl]ethyl}-3-{3-[(6-fluoronaphthalen-1-yl)oxy]propyl}-7-(1,3,5-trimethyl-1H-pyrazol-4-yl)-1H-indole-2-carboxylic acid], the EC50 in series [2] is under 100 nM. The CC50 at 24 h in series [3] was over 10000 nM.
In the same order, the values of `Cc1nn(C)c(C)c1-c1c(Cl)ccc2c(CCCOc3cccc4cc(F)ccc34)c(C(=O)O)n(CCN3CCN(C(=O)COc4cc(N(C)C)cc5c4CN(C4CCC(=O)NC4=O)C5=O)CC3)c12` (stereo not shown) [Compound 13, 6-Chloro-1-{2-[4-(2-{[6-(dimethylamino)-2-(2,6-dioxopiperidin-3-yl)-1-oxo-2,3-dihydro-1H-isoindol-4-yl]oxy}acetyl)piperazin-1-yl]ethyl}-3-{3-[(6-fluoronaphthalen-1-yl)oxy]propyl}-7-(1,3,5-trimethyl-1H-pyrazol-4-yl)-1H-indole-2-carboxylic acid] are under 316 nM and over 10000 nM.
Turning to `CCc1c(OCC(=O)N2CCN(CCn3c(C(=O)O)c(CCCOc4cccc5cc(F)ccc45)c4ccc(Cl)c(-c5c(C)nn(C)c5C)c43)CC2)cccc1C(=O)NC1CCC(=O)NC1=O` (stereo not shown) [Compound 24, 6-Chloro-1-{2-[4-(2-{3-[(2,6-dioxopiperidin-3-yl)carbamoyl]-2-ethylphenoxy}acetyl)piperazin-1-yl]ethyl}-3-{3-[(6-fluoronaphthalen-1-yl)oxy]propyl}-7-(1,3,5-trimethyl-1H-pyrazol-4-yl)-1H-indole-2-carboxylic acid], the CC50 at 24 h in series [3] was over 10000 nM.
Consider `CCc1cc(OCC(=O)N2CCN(CCn3c(C(=O)O)c(CCCOc4cccc5cc(F)ccc45)c4ccc(Cl)c(-c5c(C)nn(C)c5C)c43)CC2)ccc1C(=O)NC1CCC(=O)NC1=O` (stereo not shown) [Compound 25, 6-Chloro-1-(2-(4-(2-(4-((2,6-dioxopiperidin-3-yl)carbamoyl)-3-ethylphenoxy)acetyl)piperazin-1-yl)ethyl)-3-(3-((6-fluoronaphthalen-1-yl)oxy)propyl)-7-(1,3,5-trimethyl-1H-pyrazol-4-yl)-1H-indole-2-carboxylic acid], for which the CC50 at 24 h in series [3] is over 3160 nM.
For `Cc1nn(C)c(C)c1-c1c(Cl)ccc2c(CCCOc3cccc4cc(F)ccc34)c(C(=O)O)n(CCN3CCN(CC(=O)NCc4ccc5c(c4)CN(C4CCC(=O)NC4=O)C5=O)CC3)c12` (stereo not shown) [Compound 26, 6-Chloro-1-(2-{4-[({[2-(2,6-dioxopiperidin-3-yl)-1-oxo-2,3-dihydro-1H-isoindol-5-yl]methyl}carbamoyl)methyl]piperazin-1-yl}ethyl)-3-{3-[(6-fluoronaphthalen-1-yl)oxy]propyl}-7-(1,3,5-trimethyl-1H-pyrazol-4-yl)-1H-indole-2-carboxylic acid], the EC50 in series [2] is under 100 nM. Besides, in series [3], the CC50 at 24 h is over 31600 nM.
With `Cc1cc(OCCCc2c(C(=O)O)n(CCN3CCN(CC(=O)NCc4ccc5c(c4)CN(C4CCC(=O)NC4=O)C5=O)CC3)c3c(-c4c(C)nn(C)c4C)c(Cl)ccc23)cc(C)c1Cl` (stereo not shown) [Compound 27, 6-Chloro-3-[3-(4-chloro-3,5-dimethylphenoxy)propyl]-1-(2-{4-[({[2-(2,6-dioxopiperidin-3-yl)-1-oxo-2,3-dihydro-1H-isoindol-5-yl]methyl}carbamoyl)methyl]piperazin-1-yl}ethyl)-7-(1,3,5-trimethyl-1H-pyrazol-4-yl)-1H-indole-2-carboxylic acid], the EC50 in series [2] is under 100 nM.
For `Cc1nn(C)c(C)c1-c1c(Cl)ccc2c(CCCOc3cccc4cc(F)ccc34)c(C(=O)O)n(CCN3CCN(CC(=O)Nc4cccc5c4CN(C4CCC(=O)NC4=O)C5=O)CC3)c12` (stereo not shown) [Compound 29, 6-Chloro-1-{2-[4-({[2-(2,6-dioxopiperidin-3-yl)-1-oxo-2,3-dihydro-1H-isoindol-4-yl]carbamoyl}methyl)piperazin-1-yl]ethyl}-3-{3-[(6-fluoronaphthalen-1-yl)oxy]propyl}-7-(1,3,5-trimethyl-1H-pyrazol-4-yl)-1H-indole-2-carboxylic acid], the EC50 in series [2] is under 100 nM. In series [3], the CC50 at 24 h is over 10000 nM.
Take `Cc1nc2c(NCC(=O)N3CCN(CCn4c(C(=O)O)c(CCCOc5cccc6cc(F)ccc56)c5ccc(Cl)c(-c6c(C)nn(C)c6C)c54)CC3)cccc2cc1N1CCC(=O)NC1=O` [Compound 146, 6-Chloro-1-(2-(4-((3-(2,4-dioxotetrahydropyrimidin-1(2H)-yl)-2-methylquinolin-8-yl)glycyl)piperazin-1-yl)ethyl)-3-(3-((6-fluoronaphthalen-1-yl)oxy)propyl)-7-(1,3,5-trimethyl-1H-pyrazol-4-yl)-1H-indole-2-carboxylic acid]: the CC50 in series [1] is under 100 nM. The EC50 in series [2] is under 31.6 nM.
